Measured values taken from the supplement of paper PMC10307832.

Assays:
Assay in all cases: relative viability (nuclei count vs DMSO), 5 days (fraction); higher = more cells survive
A-427 = system: A-427
How it was run: (§1)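 Cells from lung cancer lines were seeded into 1536-well plates and, one day later, dosed by pin tool. Treatments were either a single drug or a fixed dose of an anchor drug with five library-drug doses (not always all listed) in √10 steps. After 5 days, nuclei were stained in a one-step fixation (final 0.05% Triton X-100, 1% formaldehyde, 1 ug/ml Hoechst) and counted on 4× images, and relative viability is the treated-to-vehicle nuclei ratio, as the median of duplicate plates.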

COR-L 105 = system: COR-L 105
How it was run: as §1

ChaGo-K-1 = system: ChaGo-K-1
How it was run: as §1

EKVX = system: EKVX
How it was run: as §1

EMC-BAC-2 = system: EMC-BAC-2
How it was run: as §1

H3255 = system: H3255
How it was run: as §1

HCC-366 = system: HCC-366
How it was run: as §1

LK-2 = system: LK-2
How it was run: as §1

LOU-NH91 = system: LOU-NH91
How it was run: as §1

NCI-H1563 = system: NCI-H1563
How it was run: as §1

NCI-H1666 = system: NCI-H1666
How it was run: as §1

NCI-H1734 = system: NCI-H1734
How it was run: as §1

NCI-H1755 = system: NCI-H1755
How it was run: as §1

NCI-H1792 = system: NCI-H1792
How it was run: as §1

NCI-H1944 = system: NCI-H1944
How it was run: as §1

NCI-H1975 = system: NCI-H1975
How it was run: as §1

NCI-H2170 = system: NCI-H2170
How it was run: as §1

NCI-H23 = system: NCI-H23
How it was run: as §1

NCI-H441 = system: NCI-H441
How it was run: as §1

NCI-H520 = system: NCI-H520
How it was run: as §1

NCI-H596 = system: NCI-H596
How it was run: as §1

PC-3 [JPC-3] = system: PC-3 [JPC-3]
How it was run: as §1

SK-MES-1 = system: SK-MES-1
How it was run: as §1

With CC(C)Oc1cc(Nc2nc(N[C@@H](C)c3ccc(F)cn3)ncc2Cl)n[nH]1 [AZ23] + CS(=O)(=O)N1CCN(Cc2cc3nc(-c4cccc5[nH]ncc45)nc(N4CCOCC4)c3s2)CC1 [Pictilisib] (partner 1 µM) the relative viability (A-427; first compound 0.01 µM) was 0.819, the relative viability (A-427; first compound 0.03162 µM) was 0.716 and the relative viability (A-427; first compound 0.3162 µM) was 0.62. It also gave a relative viability (COR-L 105; first compound 0.01 µM) of 0.407, a relative viability (COR-L 105; first compound 0.03162 µM) of 0.417 and a relative viability (COR-L 105; first compound 0.3162 µM) of 0.383. The relative viability (ChaGo-K-1; first compound 0.01 µM) was 0.658, the relative viability (ChaGo-K-1; first compound 0.03162 µM) was 1.18 and the relative viability (ChaGo-K-1; first compound 0.3162 µM) was 0.661. For the same molecule, the relative viability (EKVX; first compound 0.01 µM) was 0.481, the relative viability (EKVX; first compound 0.03162 µM) was 0.466 and the relative viability (EKVX; first compound 0.3162 µM) was 0.444. For the same molecule, the relative viability (EMC-BAC-2; first compound 0.01 µM) was 0.535, the relative viability (EMC-BAC-2; first compound 0.03162 µM) was 0.576 and the relative viability (EMC-BAC-2; first compound 0.3162 µM) was 0.51. It also gave a relative viability (H3255; first compound 0.01 µM) of 0.484, a relative viability (H3255; first compound 0.03162 µM) of 0.519 and a relative viability (H3255; first compound 0.3162 µM) of 0.494. For the same molecule, the relative viability (HCC-366; first compound 0.01 µM) was 0.14, the relative viability (HCC-366; first compound 0.03162 µM) was 0.145 and the relative viability (HCC-366; first compound 0.3162 µM) was 0.147. It also gave a relative viability (LK-2; first compound 0.03162 µM) of 0.499, a relative viability (LK-2; first compound 0.3162 µM) of 0.59 and a relative viability (LOU-NH91; first compound 0.01 µM) of 0.483. It also gave a relative viability (LOU-NH91; first compound 0.03162 µM) of 0.525, a relative viability (LOU-NH91; first compound 0.3162 µM) of 0.528 and a relative viability (NCI-H1563; first compound 0.01 µM) of 0.682. For the same molecule, the relative viability (NCI-H1563; first compound 0.03162 µM) was 0.653, the relative viability (NCI-H1563; first compound 0.3162 µM) was 0.674 and the relative viability (NCI-H1666; first compound 0.01 µM) was 0.51. It also gave a relative viability (NCI-H1666; first compound 0.03162 µM) of 0.559, a relative viability (NCI-H1666; first compound 0.3162 µM) of 0.417 and a relative viability (NCI-H1734; first compound 0.01 µM) of 0.429. It also gave a relative viability (NCI-H1734; first compound 0.03162 µM) of 0.543, a relative viability (NCI-H1734; first compound 0.3162 µM) of 0.487 and a relative viability (NCI-H1755; first compound 0.01 µM) of 0.41. It also gave a relative viability (NCI-H1755; first compound 0.03162 µM) of 0.478, a relative viability (NCI-H1755; first compound 0.3162 µM) of 0.464 and a relative viability (NCI-H1792; first compound 0.01 µM) of 0.248. For the same molecule, the relative viability (NCI-H1792; first compound 0.03162 µM) was 0.291, the relative viability (NCI-H1792; first compound 0.3162 µM) was 0.302 and the relative viability (NCI-H1944; first compound 0.01 µM) was 0.342. For the same molecule, the relative viability (NCI-H1944; first compound 0.03162 µM) was 0.353, the relative viability (NCI-H1944; first compound 0.3162 µM) was 0.319 and the relative viability (NCI-H1975; first compound 0.01 µM) was 0.307. For the same molecule, the relative viability (NCI-H1975; first compound 0.03162 µM) was 0.327, the relative viability (NCI-H1975; first compound 0.3162 µM) was 0.298 and the relative viability (NCI-H2170; first compound 0.01 µM) was 0.288. For the same molecule, the relative viability (NCI-H2170; first compound 0.03162 µM) was 0.325, the relative viability (NCI-H2170; first compound 0.3162 µM) was 0.304 and the relative viability (NCI-H23; first compound 0.03162 µM) was 0.543. It also gave a relative viability (NCI-H23; first compound 0.3162 µM) of 0.448, a relative viability (NCI-H441; first compound 0.01 µM) of 0.658 and a relative viability (NCI-H441; first compound 0.03162 µM) of 0.601. For the same molecule, the relative viability (NCI-H441; first compound 0.3162 µM) was 0.457, the relative viability (NCI-H520; first compound 0.01 µM) was 0.327 and the relative viability (NCI-H520; first compound 0.03162 µM) was 0.309. For the same molecule, the relative viability (NCI-H520; first compound 0.3162 µM) was 0.304, the relative viability (NCI-H596; first compound 0.01 µM) was 0.359 and the relative viability (NCI-H596; first compound 0.03162 µM) was 0.342. The relative viability (NCI-H596; first compound 0.3162 µM) was 0.397, the relative viability (PC-3 [JPC-3]; first compound 0.01 µM) was 0.807 and the relative viability (PC-3 [JPC-3]; first compound 0.03162 µM) was 0.833. For the same molecule, the relative viability (PC-3 [JPC-3]; first compound 0.3162 µM) was 0.807, the relative viability (SK-MES-1; first compound 0.01 µM) was 0.329 and the relative viability (SK-MES-1; first compound 0.03162 µM) was 0.358. The relative viability (SK-MES-1; first compound 0.3162 µM) was 0.387.
